{"source": "patent US5827837A", "about": "“Polyanion anti-inflammatory agents” (priority 1996, dated 1998)", "key": {"[1]": {"target": "T1, L-selectin-lg fusion protein (Homo sapiens, UniProt P14151)", "T1 construct": "Each selectin-lg contains the lectin domain, epidermal growth factor domain, and one (L-selectin-lg), two (P-selectin-lg) or six (E-selectin-lg) complement regulatory repeats; made in house", "experiment": "LS 180 colon cancer cell adhesion to immobilized L-selectin-Ig", "format": "cell-based", "method": "Cell adhesion assays on immobilized selectin-lg were performed essentially as described (Nelson, R. M., et al., J. Clin. Invest., 91:1157, 1993; Nelson, R. M., et al., Symposia on Quant. Biol., 57:271, 1992). Briefly, Nunclon Terasaki Microwell plates were coated overnight with 5 μl/well of a 5 μg/ml solution of protein A (Chemicon, Temecula, Calif.) in 50 mM carbonate buffer, pH 9.5. Protein-A-coated plates were washed with Dulbecco's phosphate buffered saline (PBS), incubated for 1 hour with L-, P-, or E-selectin-lg fusion proteins in PBS (5-20 μg/ml), washed again, and blocked with PBS containing 1% human serum albumin (HSA). To measure inhibition of cell adhesion, 5 μl/well of lnsP6 in PBS was added to the selectin-lg coated plates and incubated for 30 min at […]. LS 180 cells were harvested by brief trypsinization and resuspended at 1.5×10^6 cells/ml in PBS containing 1% HSA; five μl/well of suspension was added, and incubated for 30 min at 4° C. After washing to remove unbound cells, adherent cells were fixed with glutaraldehyde (2.5% in PBS) and counted. Symbols and error bars represent mean number of adherent cells/mm^2 ±s.e.m., counted in quadruplicate wells in a single experiment representative of three. No LS 180 cell adhesion was detected on plates coated with protein A alone, or on plates coated with protein A-captured CD8-lg fusion protein.\nLS 180 cells (ATCC, Rockville, Md.) were added to cell culture wells containing protein A-captured selectin-lg fusion proteins and incubated for 30 min at 4° C. to allow adhesion. The plates were washed to remove unbound cells and adherent cells were counted microscopically. To determine adhesion blocking activity, InsP6 at the indicated concentrations was added to selectin-lg-coated wells 30 min prior to addition of LS 180 cells."}, "[2]": {"target": "T1, L-selectin-lg fusion protein", "experiment": "Competition ELISA: binding of L-selectin-Ig to immobilized BSA-sLe^x", "excerpt": "Selectin-lg fusion proteins are recombinant chimeric molecules containing extracellular regions of selectins coupled to the hinge, CH2, and CH3 regions of human IgG1 (Aruffo, A., et al., Cell, 67:35, 1991; Walz, G., et al., Science, 250:1132, 1990). Each selectin-lg contains the lectin domain, epidermal growth factor domain, and one (L-selectin-lg), two (P-selectin-lg) or six (E-selectin-lg) complement regulatory repeats of the parent molecules. DNAs encoding selectin-Ig inserted in pCDM7 allowed transient expression of recombinant proteins in COS cells as previously described (Seed, B., et al., Proc. Natl. Acad. Sci., U.S.A., 84:3365, 1987; Aruffo, A., Current Protocols In Molecular Biology, eds. Ausubel, F. M., et al, 16:13.1, Greene Publishing Associates and Wiley-lnterscience, New York, N.Y., 1992). These DNAs were also ligated into pNUT (Palmiter, R. D., et al, Cell, 50:435, 1987) for amplification and stable expression in BHK cells. The fusion proteins were affinity purified from culture media using protein A (Pierce Chemical Company, Rockford, Ill.) or protein G (Pharmacia, Piscataway, N.J.) Sepharose, as previously described (Aruffo, A., et al., Cell, 67:35, 1991; Aruffo, A., Current Protocols In Molecular Biology, eds. Ausubel, F. M., et al, supra, 1992). Competition binding ELISAs using P- and E-selectin-lg were performed essentially as described (Nelson, R. M., et al., J. Clin. […] Selectin concentrations were from 10 to 30 nM. […] To increase L-selectin binding, an assay similar to that previously described was used (Foxall, C., et al., J. Cell Biol., 117:895, 1992), in which the L-selectin-lg (10-20 nM) was allowed to form aggregates with HRP-conjugated anti-lg antibody for 30 minutes prior to addition of inositols and incubation on the BSA-sLe^x -coated plate. IC50 values were calculated by fitting binding data to the equation: fraction of maximal binding=IC50 […] using nonlinear least squares analysis software (Origin, Microcal Inc, Northampton, Mass.). InsP6 (dodecasodium salt), InsS6 (hexapotassium salt), myo-inositol 1 monophosphate (cyclohexylammonium salt), and myo-inositol were from Sigma Chemical Company (St. Louis, Mo.). Stock solutions were prepared daily in 0.9% NaCl and sterilized by 0.22 μm filtration. InsP6 solutions were adjusted at pH 7.4 with HCl.\nL-, P-, or E-selectin-lg fusion proteins were incubated for 2-3 hours on microtiter plates coated with the neoglycoprotein BSA-sLe^x, the plates washed, and bound selectin-lg was detected using a peroxidase-conjugated antibody directed against the lg portion and a chromogenic substrate. To determine blocking activity, solution-phase lnsP6 (.circle-solid.), InsS6 (.largecircle.), or inositol (.box-solid.) at the indicated concentrations were added to the solutions containing selectin-Ig fusion proteins prior to transfer to microtiter plates (competition ELISA)."}}, "note": "Like-named read-outs stand apart in the source and are kept apart here.", "data": [{"smiles": "O=P(O)(O)O[C@H]1[C@H](OP(=O)(O)O)[C@@H](OP(=O)(O)O)[C@H](OP(=O)(O)O)[C@@H](OP(=O)(O)O)[C@H]1OP(=O)(O)O", "note": "[InsP6, myo-inositol hexakisphosphate]", "values": [{"measurement": "LS 180 adhesion to L-selectin-Ig", "setting": "[1]", "result": "blocked the adhesion of LS 180 cells"}, {"measurement": "IC50", "setting": "[2]", "result": "3.1 ± 0.5", "unit": "µM"}, {"measurement": "blocking of L-selectin-Ig at reduced Ca^2+", "setting": "[2]; Ca^2+ reduced to 0.15 mM", "result": "not enhanced"}]}, {"smiles": "O=S(=O)(O)O[C@H]1[C@H](OS(=O)(=O)O)[C@@H](OS(=O)(=O)O)[C@H](OS(=O)(=O)O)[C@@H](OS(=O)(=O)O)[C@H]1OS(=O)(=O)O", "note": "[InsS6, myo-inositol hexakissulfate]", "values": [{"measurement": "inhibition at 4000 µM", "setting": "[1]; LS180, 4 mM, single experiment", "result": "~45", "unit": "%"}, {"measurement": "IC50", "setting": "[2]; BSA-sLe^x competition ELISA, read-out: IC50, L-selectin binding", "result": "210 ± 110", "unit": "µM"}]}, {"smiles": "O[C@H]1[C@H](O)[C@@H](O)[C@H](O)[C@@H](O)[C@H]1O", "note": "[myo-inositol, reference compound]", "values": [{"measurement": "LS 180 adhesion to L-selectin-Ig", "setting": "[1]", "result": "inactive at concentrations up to 5 mM"}, {"measurement": "blocking of L-selectin-Ig binding", "setting": "[2]; BSA-sLe^x competition ELISA", "result": "not myo-isositol, blocked binding"}]}]}
